# Experimental data published in patent US20140121193A1, “METHODS FOR TREATING FIBROMYALGIA” (priority 2012, published 2014).
# Where a name gives a salt, the structure may show the parent alone.
# Assays:
# Type in all cases: in vivo, human
# [1] = system: patients with FMS; test: Word naming speed (Stroop Color and Word Test) before and after methylphenidate; details: 10 to 30 mg per day, median 30 days
# Description: Abnormalities in naming speed are an unappreciated feature of cognitive dysfunction in fibromyalgia (FMS). Approximately 50% of FMS patients with memory problems name words at a rate that is 203 milliseconds slower than normal. The connection between naming speed and memory loss in FMS is unclear. Stimulant medications like methylphenidate have been known to influence naming speed and could provide clues to the relationship between cognitive functioning and naming speed. The purpose of this experiment was to determine if faster naming speed is connected to positive change in cognitive functioning in patients with fibromyalgia.
# (§1) A word naming speed measure (Stroop Color and Word Test) and a measure of cognitive functioning (Mental Clutter Scale, MCS) were administered to 15 patients with FMS, before receiving methylphenidate and post-treatment with methylphenidate. The FMS patients were female, met American College of Rheumatology criteria for FMS, and had memory problems. Methylphenidate dosage was clinically determined and ranged from 10 to 30 mg per day. The median time of methylphenidate usage at re-testing was 30 days. Naming speed was determined by the number of words named in a 45 second time period.
# (§2) The mean age of the FMS sample was 46.3±11.6 years with 14.1±2.1 years of education. […] Pre-methylphenidate, the patients read 77.4 words in 45 seconds (581.4 msec/word). Post-methylphenidate, the patients read 93 words in 45 seconds (483.9 msec/word). This represents a 97.5 millisecond benefit from methylphenidate. The normative sample reads 108 words in 45 seconds or 417 msec/word.
# [2] = system: patients with FMS; test: Mental Clutter Scale (MCS), Cognition and Mental Clarity subscales, before and after methylphenidate; details: 10 to 30 mg per day, median 30 days
# Method: Three studies involving a sample of over 800 subjects were carried out to determine the structure and stability of a new scale, the Mental Clutter Scale (MCS) (Leavitt & Katz, 2011, “Development of the Mental Clutter Scale,” Psychol. Rep. 109(2): 445-52). An initial pool of 13 items was formulated from self-statements of patients presenting with a history of memory complaints and a review of the literature. Seven items relating to problems with cognitive skills were rated on a 10-point Likert scale from 1=no problem, to 10=severe problem. Six items relating to the frequency of diminished mental clarity were rated on a 10-point Likert scale from 1=not at all, to 10=all the time.
# as §1, §2
# [3] = system: patients with FMS; test: Interference from pain on energy, mood and concentration, 10 point visual analogue scale
# Method: (§3) Fibromyalgia patients were treated with methylphenidate and the effects on concentration, energy, and feelings of well-being were measured. […] Pain intensity was also recorded on a 10 point visual analogue scale, with the endpoint of 1 indicating no pain, and the endpoint of 10 indicating severe pain. The four measures were administered to 48 patients with FMS, before receiving methylphenidate and post methylphenidate treatment. The FMS patients were female and met the new ACR criteria for FMS. Methylphenidate dosage was clinically determined and ranged from 10 to 60 mg per day. The median methylphenidate usage at re-testing was 30 days.
# (§4) The mean age of the FMS sample was 48.3±12.3 years. […] The largest change occurred with concentration. However, a significant change in pain intensity with methylphenidate treatment was not observed.
# [4] = system: patients with FMS; test: Pain intensity, 10 point visual analogue scale
# Method: as §3, §4
smiles,measurement,setting,value
"COC(=O)C(c1ccccc1)C1CCCCN1 (racemic) [methylphenidate, d,l (racemic)-threo-methyl α-phenyl-2-piperidineacetate hydrochloride]","words read in 45 seconds, post-methylphenidate","[1]; pre-methylphenidate 77.4, normative sample 108",93 words in 45 seconds
same,"naming time per word, post-methylphenidate","[1]; pre-methylphenidate 581.4, normative sample 417",483.9 msec/word
same,benefit from methylphenidate in naming time per word,[1]; pre minus post,97.5 millisecond
same,"Post-methylphenidate score, Mental Clarity subscale of the Mental Clutter Scale","[2]; 15 FMS patients, pre-methylphenidate 48.1 ± 16.5, lower scores represent improved performance, p < 0.01",29.2 ± 13.6
same,"Post-methylphenidate score, Cognition subscale of the Mental Clutter Scale","[2]; 15 FMS patients, pre-methylphenidate 52.8 ± 15.6, lower scores represent improved performance, p < 0.01",35.1 ± 11.3
same,improvement with methylphenidate on Cognition (MCS),[2]; pre vs post,17 point
same,improvement with methylphenidate on Mental Clarity (MCS),[2]; pre vs post,19 point
same,"Post-methylphenidate score, pain interference on Mood","[3]; 48 female FMS patients, 10 to 60 mg per day, median 30 days, VAS 1-10, pre-methylphenidate 6.0 ± 2.6, lower scores = improved, p < 0.05",5.3 ± 2.5
same,"Post-methylphenidate score, pain interference on Concentration","[3]; 48 female FMS patients, 10 to 60 mg per day, median 30 days, VAS 1-10, pre-methylphenidate 6.5 ± 2.3, lower scores = improved",5.4 ± 2.4
same,"Post-methylphenidate score, pain interference on Energy","[3]; 48 female FMS patients, 10 to 60 mg per day, median 30 days, VAS 1-10, pre-methylphenidate 6.6 ± 2.4, lower scores = improved",5.9 ± 2.2
same,"change in pain interference on concentration, repeated measures ANOVA","[3]; pre vs post methylphenidate, p<0.001, largest change",significant reduction
same,"change in pain interference on energy, repeated measures ANOVA","[3]; pre vs post methylphenidate, p<0.01",significant reduction
same,"change in pain interference on mood, repeated measures ANOVA","[3]; pre vs post methylphenidate, p<0.05",significant reduction
same,"Post-methylphenidate score, Pain intensity","[4]; 48 female FMS patients, 10 to 60 mg per day, median 30 days, VAS 1-10, pre-methylphenidate 6.7 ± 1.9, lower scores = improved",6.4 ± 2.4
same,significant change in pain intensity with methylphenidate treatment,[4]; pre vs post methylphenidate,not observed
